Assay results reported in patent publication US7579371B2, “Methods of using [3.2.0] heterocyclic compounds and analogs thereof” (Nereus Pharmaceuticals, Inc., priority 2004, dated 2009).
Values joined by “and” are separate entries in the source; they are usually repeats but may differ in a detail not shown here. Equal entries are not always repeated. Where two headings read alike, the source gives them in different places.

How the values were obtained:
PC-3 cells = test: PARP and Pro-Caspase 3 cleavage in PC-3 cells (western blot); assay type: cell-based, human; settings: 100 nM; 0, 8 or 24 hours
Procedure: Total protein lysates were made and 20 μg of the lysates were then resolved under reducing/denaturing conditions and blotted onto nitrocellulose. The blots were then probed with anti-PARP or anti-caspase 3 antibodies followed by stripping and reprobing with an anti-actin antibody.

p21 and p27 = test: Western blot of cell cycle regulatory proteins p21 and p27; assay type: cell-based, human; settings: various concentrations, preliminary
Excerpt: The ubiquitin-proteasome pathway is an essential proteolytic system involved in cell cycle control by regulating the degradation of cyclins and cyclin-dependent kinase (Cdk) inhibitors such as p21 and p27. Pagano, et al., Science 269:682 (1995), Kisselev, et al., Chem Biol 8:739 (2001), King, et al., Science 274:1652 (1996). Furthermore, p21 and p27 protein levels are increased in the presence of proteasome inhibitors. Fukuchi, et al., Biochim Biophys Acta 1451:206 (1999), Takeuchi, et al, Jpn J Cancer Res 93:774 (2002).
The Western blots presented in FIG. 33 were reprobed using antibodies against p21 and p27 to determine the endogenous level of each protein and anti-Tubulin antibody was used to confirm equal loading of protein.

MES-SA = test: Cell growth inhibition assay (resazurin, 48 h); assay type: cell-based, human
[1] = Maximum tolerated dose determination in female BALB/c mice; assay type: in vivo, mouse
Excerpt: In vivo studies were designed to determine the MTD of Salinosporamide A when administered intravenously to female BALB/c mice.
Animals were observed daily for clinical signs and were weighed individually twice weekly until the end of the experiment (maximum of 14 days after the last day of dosing).

IκBα = test: Western blot of total and phosphorylated IκBα, HEK293 and NF-κB/Luc 293 cells; assay type: cell-based, human; settings: 50 and 500 nM, 1 hour pre-treatment
Procedure: Endogenous protein levels were assessed in both HEK293 cells and the NF-κB/Luc 293 reporter clone.
Antibodies against total and phosphorylated forms of IκBα were used to determine the endogenous level of each protein and anti-Tubulin antibody was used to confirm equal loading of protein.

MES-SA/Dx5 = test: Cell growth inhibition assay (resazurin, 48 h)
Procedure: (§1) Concentrations ranging from 6.32 μM to 2 nM were tested for II-2 and II-4.
The multidrug resistant MES-SA/Dx5 tumor cell line was derived from the human uterine sarcoma MES-SA tumor cell line and expresses elevated P-Glycoprotein (P-gp), an ATP dependent efflux pump.

RPMI 8226 = test: Cell growth inhibition assay (resazurin, 48 h); settings: for % cytotoxicity: RPMI 8226
Procedure: RPMI 8226 (CCL-155), HT-29 (HTB-38), and B16-F10 (CRL-6475) cells were purchased from ATCC. RPMI 8226 cells were maintained in RPMI 1640 media supplemented with 10% (v/v) FBS, 2 mM L-glutamine, 1 mM sodium pyruvate and Penicillin/Streptomycin at 100 IU/ml and 100 μg/ml, respectively. HT-29 cells were maintained in McCoys 5A supplemented with 10% (v/v) FBS, 2 mM L-glutamine, 1 mM sodium pyruvate, 1% (v/v) non-essential amino acids, 10 mM HEPES and Penicillin/Streptomycin at 100 IU/ml and 100 μg/ml, respectively. B16-F10 cells were maintained in DMEM supplemented with 10% (v/v) FBS, 2 mM L-glutamine, 10 mM HEPES and Penicillin/Streptomycin at 100 IU/ml and 100 μg/ml, respectively.
RPMI 8226 cells were seeded at 2×10^4 cells/well in 90 μl RPMI media containing 10% (v/v) FBS or 1% (v/v) FBS into 96 well black-walled, clear-bottom tissue culture plates. […] Formulae II-16, II-17 and Formula II-18 were serially diluted in media containing 1% or 10% FBS and added in triplicate to the test wells. […] The final concentration of Formula II-18 ranged from 2 μM to 630 pM.

Jurkat cells = test: Cytotoxicity against Jurkat cells; assay type: cell-based, human
HL-60/MX2 = test: Cell growth inhibition assay (resazurin, 48 h); settings: for EC50: HL-60/MX2, 48 h
Procedure: The DNA binding agent Mitoxantrone was included as a control, as HL-60/MX2 cells are reported to be resistant to this chemotherapeutic agent (Harker W. G. et al. 1989).
as §1
HL-60/MX2 is a multidrug resistant tumor cell line derived from the human promyelocytic leukemia cell line, HL-60 and expresses reduced topoisomerase II activity. […] Mitoxantrone, the topoisomerase II targeting agent was included as a control.

RAW264.7 cells = test: cells; settings: Mus musculus
[2] = tested on: 60 human tumor cell lines; test: NCI screening panel of 60 human tumor cell lines (sulforhodamine B)
NCI-H292 = test: Cell growth inhibition assay (resazurin, 48 h); assay type: cell-based, human; settings: NCI-H292, 48 h
U266 = test: Cell growth inhibition assay (resazurin, 48 h); assay type: cell-based; settings: Homo sapiens, U-266, 48 h, U266, 48 h
CYP2C19 = CYP2C19 (Homo sapiens, UniProt P33261); test: Preliminary P450 inhibition screen; settings: tested at 10 μM
Excerpt: (§2) These studies consisted of solubility assessment, LogD^7.4 determination and a preliminary screen to detect cytochrome P450 enzyme inhibition.

CYP3A4 = CYP3A4 (Homo sapiens, UniProt P08684); test: Preliminary P450 inhibition screen; settings: tested at 10 μM
Excerpt: as §2

CYP2C9 = CYP2C9 (Homo sapiens, UniProt P11712); test: Preliminary P450 inhibition screen; settings: tested at 10 μM
Excerpt: as §2

CYP1A2 = CYP1A2 (Homo sapiens, UniProt P05177); test: Preliminary P450 inhibition screen; settings: tested at 10 μM
Excerpt: as §2

CYP2D6 = CYP2D6 (Homo sapiens, UniProt P10635); test: Preliminary P450 inhibition screen; settings: tested at 10 μM
Excerpt: as §2

Sequence of CYP3A4 (P08684 whole entry): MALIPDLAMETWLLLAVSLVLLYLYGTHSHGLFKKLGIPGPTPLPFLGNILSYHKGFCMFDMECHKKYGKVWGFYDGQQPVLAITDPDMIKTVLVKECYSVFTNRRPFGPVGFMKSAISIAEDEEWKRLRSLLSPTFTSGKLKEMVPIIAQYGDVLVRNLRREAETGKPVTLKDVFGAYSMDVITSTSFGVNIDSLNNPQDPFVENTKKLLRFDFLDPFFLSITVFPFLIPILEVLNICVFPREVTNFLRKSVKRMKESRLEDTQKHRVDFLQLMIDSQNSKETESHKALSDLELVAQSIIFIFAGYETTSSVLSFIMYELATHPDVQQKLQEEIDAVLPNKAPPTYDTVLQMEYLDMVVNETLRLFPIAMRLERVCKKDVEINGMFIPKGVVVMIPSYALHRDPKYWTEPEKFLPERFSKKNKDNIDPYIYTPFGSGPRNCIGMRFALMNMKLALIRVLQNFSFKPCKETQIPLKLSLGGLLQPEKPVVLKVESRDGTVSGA
Sequence of CYP2D6 (P10635 whole entry): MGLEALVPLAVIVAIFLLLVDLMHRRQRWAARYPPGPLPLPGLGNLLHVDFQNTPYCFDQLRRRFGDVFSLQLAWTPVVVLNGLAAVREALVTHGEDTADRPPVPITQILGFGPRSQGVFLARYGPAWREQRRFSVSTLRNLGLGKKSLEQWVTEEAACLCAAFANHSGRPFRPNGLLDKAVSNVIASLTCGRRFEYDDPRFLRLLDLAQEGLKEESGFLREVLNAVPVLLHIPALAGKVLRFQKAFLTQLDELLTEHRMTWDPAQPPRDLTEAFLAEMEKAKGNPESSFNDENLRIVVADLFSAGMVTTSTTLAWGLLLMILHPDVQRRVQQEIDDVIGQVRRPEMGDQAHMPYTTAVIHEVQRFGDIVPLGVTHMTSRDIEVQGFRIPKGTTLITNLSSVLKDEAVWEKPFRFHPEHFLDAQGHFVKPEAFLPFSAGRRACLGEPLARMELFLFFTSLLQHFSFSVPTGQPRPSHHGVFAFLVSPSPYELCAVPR
Sequence of CYP2C19 (P33261 whole entry): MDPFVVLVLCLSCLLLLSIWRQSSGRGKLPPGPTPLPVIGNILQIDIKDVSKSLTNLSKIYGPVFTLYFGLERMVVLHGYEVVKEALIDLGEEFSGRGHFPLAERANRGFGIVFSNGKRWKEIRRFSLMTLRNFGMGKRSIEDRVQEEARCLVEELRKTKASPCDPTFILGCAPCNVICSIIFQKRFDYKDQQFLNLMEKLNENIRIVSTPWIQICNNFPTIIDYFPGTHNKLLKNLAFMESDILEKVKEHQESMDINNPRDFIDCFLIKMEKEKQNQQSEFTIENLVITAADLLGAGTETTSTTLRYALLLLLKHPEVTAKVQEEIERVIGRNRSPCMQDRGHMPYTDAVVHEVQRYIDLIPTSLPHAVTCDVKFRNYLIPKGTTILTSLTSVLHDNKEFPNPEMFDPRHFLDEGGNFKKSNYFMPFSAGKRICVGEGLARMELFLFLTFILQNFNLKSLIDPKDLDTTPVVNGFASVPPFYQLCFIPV
Sequence of CYP2C9 (P11712 whole entry): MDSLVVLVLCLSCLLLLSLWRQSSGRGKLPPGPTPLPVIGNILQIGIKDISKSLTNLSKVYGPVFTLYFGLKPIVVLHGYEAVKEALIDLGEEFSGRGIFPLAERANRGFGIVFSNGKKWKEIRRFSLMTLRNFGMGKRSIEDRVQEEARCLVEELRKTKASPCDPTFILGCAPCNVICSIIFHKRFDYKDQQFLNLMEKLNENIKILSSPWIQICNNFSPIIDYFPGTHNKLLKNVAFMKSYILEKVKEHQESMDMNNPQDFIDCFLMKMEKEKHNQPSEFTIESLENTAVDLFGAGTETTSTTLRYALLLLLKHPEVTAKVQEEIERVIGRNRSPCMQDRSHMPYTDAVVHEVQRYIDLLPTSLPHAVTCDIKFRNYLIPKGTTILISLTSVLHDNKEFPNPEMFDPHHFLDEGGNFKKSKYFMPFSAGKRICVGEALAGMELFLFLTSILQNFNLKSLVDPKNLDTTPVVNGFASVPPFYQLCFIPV
Sequence of CYP1A2 (P05177 whole entry): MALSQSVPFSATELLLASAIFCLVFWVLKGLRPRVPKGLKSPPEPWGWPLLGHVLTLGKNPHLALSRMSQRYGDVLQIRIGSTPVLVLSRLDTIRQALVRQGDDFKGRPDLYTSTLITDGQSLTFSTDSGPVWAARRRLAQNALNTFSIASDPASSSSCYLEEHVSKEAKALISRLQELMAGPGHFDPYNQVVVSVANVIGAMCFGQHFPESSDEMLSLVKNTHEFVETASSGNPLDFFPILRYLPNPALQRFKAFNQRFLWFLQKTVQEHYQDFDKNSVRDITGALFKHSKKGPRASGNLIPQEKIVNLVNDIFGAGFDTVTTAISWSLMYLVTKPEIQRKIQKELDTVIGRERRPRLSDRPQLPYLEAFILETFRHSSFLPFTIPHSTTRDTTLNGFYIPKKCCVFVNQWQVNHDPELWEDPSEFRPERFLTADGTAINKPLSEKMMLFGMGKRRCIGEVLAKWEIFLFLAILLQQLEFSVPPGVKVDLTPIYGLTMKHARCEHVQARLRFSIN

**Q.** With `C[C@@]12OC(=O)[C@]1([C@@H](O)[C@@H]1C=CCCC1)NC(=O)[C@@H]2CCCl` [Formula II-16, Salinosporamide A] as the molecule, how does the “cleavage of PARP” value (PC-3 cells) read?
**A.** Its value is “cleavage of PARP is noticeable at 24 hours”.

**Q.** What about the “p21 and p27 protein levels” value (p21 and p27) of the same molecule?
**A.** Its value is “elevated”.

**Q.** And the “% cytotoxicity” value (MES-SA)?
**A.** Its value is 94 ± 1%.

**Q.** And the EC50 (MES-SA; Homo sapiens, 48 h)?
**A.** The EC50 was 20 ± 5 nM.

**Q.** And the “% cytotoxicity” value (HL-60; HL-60)?
**A.** The value was 88% and 91%.

**Q.** And the EC50 (HL-60; HL-60, 48 h)?
**A.** Its EC50 is 30 nM.

**Q.** What about the “well tolerated dose, daily for five consecutive days” value ([1]; i.v. qdx5, female BALB/c mice) of the same molecule?
**A.** Its value is “up to 0.1 mg/kg”.

**Q.** And the “tolerated single intravenous dose” value ([1]; qdx1, female BALB/c mice)?
**A.** The value was “up to 0.25 mg/kg”.

**Q.** And the “effect on total IκBα and phospho-IκBα upon TNF-α stimulation” value (IκBα)?
**A.** The value was “reduced the degradation of total IκBα but also retained the phospho-IκBα level”.

**Q.** What about the EC50 (MES-SA/Dx5; Homo sapiens, MES-SA/Dx5, 48 h) of the same molecule?
**A.** The EC50 was 23 ± 1 nM.

**Q.** And the “% cytotoxicity” value (MES-SA/Dx5; MES-SA/Dx5)?
**A.** Its value is 92 ± 2%.

**Q.** What about the EC50 (RPMI 8226; Homo sapiens, RPMI-8226, 48 h, RPMI 8226, 48 h) of the same molecule?
**A.** Its EC50 is 8.6 ± 1.9 nM.

**Q.** And the “% cytotoxicity” value (RPMI 8226; listed as II-16)?
**A.** Its value is 94 ± 0%.

**Q.** And the “% cytotoxicity” value (RPMI 8226; listed as Salinosporamide A)?
**A.** Its value is 94 ± 1%.

**Q.** What about the “% max cell kill” value (Jurkat cells) of the same molecule?
**A.** Its value is 97%.

**Q.** And the EC50 (Jurkat cells; Homo sapiens)?
**A.** The EC50 was 10 nM.

**Q.** And the “% cytotoxicity” value (HL-60/MX2; HL-60/MX2)?
**A.** The value was 84% and 89%.

**Q.** What about the EC50 (HL-60/MX2) of the same molecule?
**A.** The EC50 was 25 nM.

**Q.** And the EC50 (HL-60/MX2; Homo sapiens, HL60/MX2, 48 h)?
**A.** The EC50 was 28 nM.

**Q.** What about the EC50 (RAW264.7 cells; RAW264.7, read-out: EC50, inhibition of LeTx-mediated cytotoxicity) of the same molecule?
**A.** The EC50 was under 4 nM.

**Q.** What about the viability at […] (RAW264.7 cells; RAW264.7, read-out: cell-viability, compound + LeTx) of the same molecule?
**A.** Its viability at […] is 82%.

**Q.** What about the GI50 ([2]; 60 cell, 48 h, read-out: mean GI50) of the same molecule?
**A.** The GI50 was under 10 nM.

**Q.** And the CC50 ([2]; SK-MEL-28, read-out: LC50)?
**A.** The CC50 was under 10 nM.

**Q.** What about the CC50 ([2]; read-out: LC50) of the same molecule?
**A.** Its CC50 is under 10 nM.

**Q.** And the EC50 (NCI-H292; Homo sapiens)?
**A.** The EC50 was 97 nM.

**Q.** And the EC50 (NCI-H292)?
**A.** Its EC50 is 66 ± 29 nM.

**Q.** And the EC50 (U266)?
**A.** The EC50 was 4.7 ± 0.7 nM.

**Q.** And the “inhibition of CYP2C19” value (CYP2C19)?
**A.** Its value is 22%.

**Q.** What about the “inhibition of CYP3A4” value (CYP3A4) of the same molecule?
**A.** Its value is 6%.

**Q.** And the “inhibition of CYP2C9” value (CYP2C9)?
**A.** Its value is 6%.

**Q.** And the “inhibition of CYP1A2” value (CYP1A2)?
**A.** The value was 3%.

**Q.** And the “inhibition of CYP2D6” value (CYP2D6)?
**A.** The value was 19%.
